The numbers were not newly measured in patent US20080096915A1, “COMPOSITIONS FOR THE TREATMENT OF METABOLIC DISORDERS” (Greenberg Traurig LLP, priority 2005, published 2008), which cites them from elsewhere.

For data set [1], the system named is healthy subjects.
Data set [2] has as its system patients whose blood pressure had not been normalized. The settings on record: cicletanine 50 and 100 mg per day added to calcium channel blockers, beta blockers or ACE inhibitors.
The test system of data set [3] is patients. The settings on record: 150-200 mg/day cicletanine, over 12 months; fell from 128.
For data set [4], the system named is Dahl salt-sensitive rats with salt-induced hypertension.
For data set [5], the system named is hypertensives. Also noted: dose or concentration left out as unconfirmed. The settings on record: 1050 hypertensives, for three months, dose doubled in one third; decreased from 176/104.
The target in data set [6] is sulfonylurea receptor (Homo sapiens, UniProt Q09428).
Chain of sulfonylurea receptor (Q09428 whole entry): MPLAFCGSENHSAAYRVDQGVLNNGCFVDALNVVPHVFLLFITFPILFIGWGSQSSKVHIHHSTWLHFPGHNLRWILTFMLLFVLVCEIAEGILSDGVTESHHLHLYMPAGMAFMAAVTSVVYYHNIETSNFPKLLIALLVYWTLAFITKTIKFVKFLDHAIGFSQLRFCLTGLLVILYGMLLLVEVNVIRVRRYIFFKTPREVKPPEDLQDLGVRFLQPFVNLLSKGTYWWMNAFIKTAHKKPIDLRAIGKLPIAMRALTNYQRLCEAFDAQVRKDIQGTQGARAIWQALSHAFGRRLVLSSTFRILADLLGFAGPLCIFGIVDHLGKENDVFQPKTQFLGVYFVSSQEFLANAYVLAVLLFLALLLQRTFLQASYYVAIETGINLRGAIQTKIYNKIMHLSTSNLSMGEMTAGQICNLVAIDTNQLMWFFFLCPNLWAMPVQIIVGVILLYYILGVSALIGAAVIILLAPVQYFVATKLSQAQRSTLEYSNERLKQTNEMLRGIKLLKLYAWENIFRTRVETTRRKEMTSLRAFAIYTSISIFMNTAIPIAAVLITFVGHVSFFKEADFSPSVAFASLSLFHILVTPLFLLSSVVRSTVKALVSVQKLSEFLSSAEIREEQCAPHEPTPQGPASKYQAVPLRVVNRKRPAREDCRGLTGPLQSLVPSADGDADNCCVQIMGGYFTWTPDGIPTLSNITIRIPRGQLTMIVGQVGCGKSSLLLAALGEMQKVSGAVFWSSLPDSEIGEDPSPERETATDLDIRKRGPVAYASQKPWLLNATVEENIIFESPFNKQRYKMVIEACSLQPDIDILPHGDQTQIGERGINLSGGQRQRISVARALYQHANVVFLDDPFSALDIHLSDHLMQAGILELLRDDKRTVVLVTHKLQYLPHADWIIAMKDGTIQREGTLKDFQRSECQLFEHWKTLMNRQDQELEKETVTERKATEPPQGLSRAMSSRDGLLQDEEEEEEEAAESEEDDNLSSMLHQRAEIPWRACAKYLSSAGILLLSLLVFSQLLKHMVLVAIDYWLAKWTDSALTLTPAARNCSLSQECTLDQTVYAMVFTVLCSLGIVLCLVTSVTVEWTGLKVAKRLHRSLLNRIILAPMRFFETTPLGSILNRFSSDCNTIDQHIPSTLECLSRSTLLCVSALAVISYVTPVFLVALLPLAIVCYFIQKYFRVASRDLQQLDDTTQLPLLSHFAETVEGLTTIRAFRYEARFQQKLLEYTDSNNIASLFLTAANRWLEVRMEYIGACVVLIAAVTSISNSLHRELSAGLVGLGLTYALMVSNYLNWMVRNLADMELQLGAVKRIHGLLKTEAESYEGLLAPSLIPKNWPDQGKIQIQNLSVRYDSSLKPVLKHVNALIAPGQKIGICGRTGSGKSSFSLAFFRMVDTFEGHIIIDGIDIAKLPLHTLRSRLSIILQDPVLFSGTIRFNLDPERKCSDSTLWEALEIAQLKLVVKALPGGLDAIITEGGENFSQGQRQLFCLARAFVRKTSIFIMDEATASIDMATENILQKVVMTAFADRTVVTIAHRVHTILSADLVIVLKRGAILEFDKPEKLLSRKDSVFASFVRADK
Chain of sulfonylurea receptor (Q14654 whole entry partner): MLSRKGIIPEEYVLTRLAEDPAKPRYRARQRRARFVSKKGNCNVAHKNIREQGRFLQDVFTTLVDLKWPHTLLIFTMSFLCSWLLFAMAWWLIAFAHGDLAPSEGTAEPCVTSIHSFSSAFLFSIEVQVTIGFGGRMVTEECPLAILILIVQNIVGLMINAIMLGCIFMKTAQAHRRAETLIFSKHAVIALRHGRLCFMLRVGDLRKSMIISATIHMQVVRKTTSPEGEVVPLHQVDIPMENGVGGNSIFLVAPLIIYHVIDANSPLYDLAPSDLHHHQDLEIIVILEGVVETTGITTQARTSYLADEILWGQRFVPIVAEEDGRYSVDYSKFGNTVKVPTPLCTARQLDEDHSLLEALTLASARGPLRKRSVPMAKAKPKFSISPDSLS
The conditions of data set [7]: in vivo.

As to `Cc1ncc2c(c1O)COC2c1ccc(Cl)cc1` (racemic) [cicletanine, +−3-(4-chlorophenyl)-1,3-dihydro-6-methylfuro-[3,4-c]pyridin-7-ol], in data set [1] (10 healthy subjects, single intravenous tolbutamide after 7 days of cicletanine 100 mg per day), the “peak insulin response to tolbutamide, following cicletanine administration” value is listed as 17.4 mU/L. Further, the “hypoglycemic effect of tolbutamide following cicletanine administration” value in data set [1] (after 7 days of cicletanine 100 mg per day) is “did not change”. In data set [2], the “patients whose blood pressure was normalized” value is listed as 50 % of patients. In data set [3], the “average triglyceride level after treatment” value is 104 mg/dL. In data set [4], the “high-density lipoprotein (HDL) cholesterol” value was “increased” and the “low-density lipoprotein (LDL) cholesterol” value is “significantly decreased”. Further, the “blood pressure after treatment” value in data set [5] is 151/86.

As for `Cc1cnc(C(=O)NCCc2ccc(S(=O)(=O)NC(=O)NC3CCCCC3)cc2)cn1` [glipizide], in data set [6], the “concentration range that saturates receptors” value was “low nanomolar”.

As to `COc1ccc(Cl)cc1C(=O)NCCc1ccc(S(=O)(=O)NC(=O)NC2CCCCC2)cc1` [glyburide], in data set [7], the plasma half-life is 4 to 11 h.

`CCCCNC(=O)NS(=O)(=O)c1ccc(C)cc1` [tolbutamide]: the “peak insulin response to tolbutamide, before cicletanine administration” value in data set [1] (10 healthy subjects, single intravenous dose of tolbutamide alone) is 29.2 mU/L.
